{"source": "ChEMBL document CHEMBL4033669", "about": "“Guanylthiourea derivatives as potential antimalarial agents: Synthesis, in vivo and molecular modelling studies” (Eur J Med Chem, 2017)", "key": {"Plasmodium berghei [1]": {"system": "Plasmodium berghei", "assay": "(§1) Antimalarial activity against Plasmodium berghei in Swiss mouse inoculated with parasite infected red blood cells assessed as mean survival time at 100 mg/kg/day, ip administered 4 hrs post infection on day 0, 1, 2 , 3", "assay_type": "functional"}, "Plasmodium berghei [2]": {"system": "Plasmodium berghei", "assay": "as §1, with “reduction in parasitemia” for “mean survival time”, “3 measured on day 7 post infection by giemsa staining based microscopic method” for “3”", "assay_type": "functional, organism-based"}, "Plasmodium berghei [3]": {"system": "Plasmodium berghei", "assay": "as §1, with “reduction in parasitemia” for “mean survival time”, “3 measured on day 4 post infection by giemsa staining based microscopic method” for “3”", "assay_type": "functional, organism-based"}, "Mus musculus": {"system": "Mus musculus", "assay": "Toxicity in Swiss mouse inoculated with parasite infected red blood cells assessed as mortality at 100 mg/kg/day, ip administered 4 hrs post infection on day 0, 1, 2 , 3 measured on day 4", "assay_type": "organism-based", "conditions": "in vivo"}, "[4]": {"assay": "Apparent permeability across apical to basolateral side in human Caco2 cells at 50 uM after 90 mins by LC-MS/MS method", "assay_type": "ADME, cell-based", "conditions": "Caco-2"}, "[5]": {"assay": "Oral bioavailability in Sprague-Dawley rat at 10 mg/kg, administered via gavage", "assay_type": "ADME, organism-based", "conditions": "in vivo"}}, "note": "Active and inactive are the calls of the source. No cut-off for these calls is given here."}
{"molecule": "N=C(N)/N=C(\\N)SCCCOc1ccc(Cl)c(Cl)c1", "values": [{"measurement": "MST", "setting": "Plasmodium berghei [1]", "value": 24, "unit": "days"}]}
{"molecule": "N=C(N)/N=C(\\N)SCCOc1nc2ccccc2s1", "values": [{"measurement": "Activity", "setting": "Plasmodium berghei [2]", "value": "Active"}]}
{"molecule": "N=C(N)/N=C(\\N)SCc1ccc(OCc2cccc(Br)c2)cc1", "values": [{"measurement": "Activity", "setting": "Plasmodium berghei [3]", "value": "inactive"}, {"measurement": "Activity", "setting": "Mus musculus", "value": "Toxic"}]}
{"molecule": "N=C(N)NC(=N)SCc1cccc([N+](=O)[O-])c1", "values": [{"measurement": "Activity", "setting": "Plasmodium berghei [3]", "value": "inactive"}, {"measurement": "Activity", "setting": "Mus musculus", "value": "Toxic"}]}
{"molecule": "N#Cc1ccc(CS/C(N)=N/C(=N)N)cc1", "values": [{"measurement": "Activity", "setting": "Plasmodium berghei [3]", "value": "inactive"}]}
{"molecule": "N=C(N)/N=C(\\N)SCc1ccc(F)cc1", "values": [{"measurement": "Activity", "setting": "Plasmodium berghei [3]", "value": "inactive"}, {"measurement": "Activity", "setting": "Mus musculus", "value": "Toxic"}]}
{"molecule": "Cc1ccc(CSC(=N)N=C(N)N)cc1", "values": [{"measurement": "Activity", "setting": "Plasmodium berghei [3]", "value": "inactive"}, {"measurement": "Activity", "setting": "Mus musculus", "value": "Toxic"}]}
{"molecule": "N#Cc1ccc(CSC(=N)NC(=N)N)cc1", "values": [{"measurement": "Activity", "setting": "Mus musculus", "value": "Toxic"}]}
{"molecule": "N=C(N)/N=C(\\N)SCCCOc1ccc(I)cc1", "values": [{"measurement": "MST", "setting": "Plasmodium berghei [1]", "value": 26, "unit": "days"}]}
{"molecule": "N=C(N)/N=C(\\N)SCCOc1cccc(Br)c1", "values": [{"measurement": "MST", "setting": "Plasmodium berghei [1]", "value": 25, "unit": "days"}]}
{"molecule": "N=C(N)/N=C(\\N)SCc1cccc(Cl)c1", "values": [{"measurement": "Activity", "setting": "Plasmodium berghei [3]", "value": "inactive"}, {"measurement": "Activity", "setting": "Mus musculus", "value": "Toxic"}]}
{"molecule": "N=C(N)/N=C(\\N)SCc1ccccc1C(F)(F)F", "values": [{"measurement": "Activity", "setting": "Plasmodium berghei [3]", "value": "inactive"}, {"measurement": "Activity", "setting": "Mus musculus", "value": "Toxic"}]}
{"molecule": "N=C(N)NC(=N)SCc1cccc(C(F)(F)F)c1", "values": [{"measurement": "Activity", "setting": "Plasmodium berghei [3]", "value": "inactive"}, {"measurement": "Activity", "setting": "Mus musculus", "value": "Toxic"}]}
{"molecule": "N=C(N=C(N)N)SCc1cccc(I)c1", "values": [{"measurement": "Activity", "setting": "Plasmodium berghei [3]", "value": "inactive"}, {"measurement": "Activity", "setting": "Mus musculus", "value": "Toxic"}]}
{"molecule": "N=C(N)/N=C(\\N)SCc1cccc(CS/C(N)=N/C(=N)N)c1", "values": [{"measurement": "MST", "setting": "Plasmodium berghei [1]", "value": 20, "unit": "days"}]}
{"molecule": "CC1(C)N=C(N)N=C(N)N1OCCCOc1cc(Cl)c(Cl)cc1Cl", "values": [{"measurement": "Papp A→B at 1.5 h, 50 µM", "setting": "[4]", "value": "< 1.2", "unit": "nm/s"}, {"measurement": "bioavailability", "setting": "[5]", "value": "< 1", "unit": "%"}]}
{"molecule": "N=C(N)/N=C(\\N)SCCCOc1c(Cl)cc(Cl)cc1Cl", "values": [{"measurement": "MST", "setting": "Plasmodium berghei [1]", "value": 24, "unit": "days"}]}
{"molecule": "N=C(N)/N=C(\\N)SCc1ccccc1[N+](=O)[O-]", "values": [{"measurement": "Activity", "setting": "Plasmodium berghei [3]", "value": "inactive"}, {"measurement": "Activity", "setting": "Mus musculus", "value": "Toxic"}]}
